Publication PMC12915096, “AI‐Driven Acceleration of Fluorescence Probe Discovery” (Advanced Science, 2025)

Target: T1, tau aggregates in cleared P301S mice brain (Homo sapiens, UniProt P10636, P618S)
T1 construct: from tissue; host or cells: brain of 9-month-old P301S (PS19) tau transgenic mice, in vivo and ex vivo
Assay: 3D transparent brain imaging after tissue clearing
Format: in vivo
Conditions: transgenic mouse brains, ex vivo
Method: After two‐photon imaging, mice were anesthetized by isoflurane and were transcardially perfused with ice‐cold 1×PBS followed with ice‐cold 4% PFA solution. Brain was incubated in 4% PFA at 4°C with shaking overnight. The samples were then washed with 1×PBS for at least 2 h twice at room temperature. The clearing of the fixed samples was conducted with Nuohai enhanced tissue clearing kit (NH‐CR‐230701, Nuohai Life Science (Shanghai) Co., Ltd). Briefly, samples were immersed individually in 20 mL of solution A for 7–8 days (refreshing the solution every two days) with gentle shaking at 37°C. The sample was washed in 1×PBS for 6 h with gentle shaking at room temperature and the PBS refreshed every 2 h. Finally, the samples were RI matched for 3D imaging. 3D fluorescence imaging of the cleared tissues was conducted with a Nuohai LS 18 tiling light sheet microscope (Nuohai Life Science Co., Ltd). A 4‐tile tiling light sheet was used to illuminate the samples, and a 1 × 0.25 NA objective (Olympus MVPLAPO) was used to collect the fluorescence. The magnification of the microscope was set at 4×, and the spatial resolution was roughly 3.3 × 3.3 × 7 µm^3 at the selected imaging conditions. The collected images were processed with the LS 18 image combine software (Nuohai Life Science Co., Ltd) and rendered using Amira (Thermo Fisher Scientific, USA). […]

T1 sequence (P10636 1-412 isoform P10636-7 P272S): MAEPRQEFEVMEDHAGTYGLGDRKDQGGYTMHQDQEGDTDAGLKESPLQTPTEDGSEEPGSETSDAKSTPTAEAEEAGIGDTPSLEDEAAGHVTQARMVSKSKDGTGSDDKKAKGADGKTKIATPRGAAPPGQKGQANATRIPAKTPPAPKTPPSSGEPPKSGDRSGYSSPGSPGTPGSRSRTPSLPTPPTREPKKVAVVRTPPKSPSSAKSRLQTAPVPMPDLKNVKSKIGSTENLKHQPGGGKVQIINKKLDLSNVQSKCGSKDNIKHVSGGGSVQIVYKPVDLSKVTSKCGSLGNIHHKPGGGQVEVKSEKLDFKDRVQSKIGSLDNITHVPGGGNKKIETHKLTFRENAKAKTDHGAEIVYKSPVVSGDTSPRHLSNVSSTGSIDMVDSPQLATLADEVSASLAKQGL

- Tau labeling signal after 8 days of tissue clearing: nearly abolished
SMILES: O=C(O)c1cc(/C=C/c2ccc(/C=C/c3ccc(O)c(C(=O)O)c3)c(F)c2)ccc1O [FSB]
